{"source": "ChEMBL document CHEMBL4706484", "about": "“Apigenin-rivastigmine hybrids as multi-target-directed liagnds for the treatment of Alzheimer's disease” (Eur J Med Chem, 2020)", "key": {"Acetylcholinesterase": {"target": "T1, Acetylcholinesterase (Rattus norvegicus, UniProt P37136)", "T1 sequence (P37136 whole entry)": "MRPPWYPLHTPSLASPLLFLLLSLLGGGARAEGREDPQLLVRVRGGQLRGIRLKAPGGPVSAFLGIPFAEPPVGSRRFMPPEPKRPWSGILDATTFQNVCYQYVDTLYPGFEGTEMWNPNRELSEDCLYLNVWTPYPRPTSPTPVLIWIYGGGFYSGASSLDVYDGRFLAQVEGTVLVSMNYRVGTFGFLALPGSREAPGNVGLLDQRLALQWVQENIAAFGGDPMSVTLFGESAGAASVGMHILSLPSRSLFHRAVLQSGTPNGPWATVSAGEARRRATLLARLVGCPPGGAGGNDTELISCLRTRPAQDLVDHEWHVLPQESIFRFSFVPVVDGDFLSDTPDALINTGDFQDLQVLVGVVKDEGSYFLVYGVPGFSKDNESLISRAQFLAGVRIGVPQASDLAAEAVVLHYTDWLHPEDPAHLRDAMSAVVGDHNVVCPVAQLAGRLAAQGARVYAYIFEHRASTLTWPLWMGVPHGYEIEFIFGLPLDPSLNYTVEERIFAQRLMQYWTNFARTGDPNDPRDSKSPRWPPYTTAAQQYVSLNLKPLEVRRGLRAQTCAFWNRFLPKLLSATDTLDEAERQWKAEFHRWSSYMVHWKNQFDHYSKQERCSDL", "assay": "Inhibition of rat cortex AChE using acetylthiocholine iodide as substrate measured after 15 mins by Ellman's method", "assay_type": "tissue-based"}, "Cholinesterase [1]": {"target": "T2, Cholinesterase (Homo sapiens, UniProt P06276)", "T2 sequence (P06276 whole entry)": "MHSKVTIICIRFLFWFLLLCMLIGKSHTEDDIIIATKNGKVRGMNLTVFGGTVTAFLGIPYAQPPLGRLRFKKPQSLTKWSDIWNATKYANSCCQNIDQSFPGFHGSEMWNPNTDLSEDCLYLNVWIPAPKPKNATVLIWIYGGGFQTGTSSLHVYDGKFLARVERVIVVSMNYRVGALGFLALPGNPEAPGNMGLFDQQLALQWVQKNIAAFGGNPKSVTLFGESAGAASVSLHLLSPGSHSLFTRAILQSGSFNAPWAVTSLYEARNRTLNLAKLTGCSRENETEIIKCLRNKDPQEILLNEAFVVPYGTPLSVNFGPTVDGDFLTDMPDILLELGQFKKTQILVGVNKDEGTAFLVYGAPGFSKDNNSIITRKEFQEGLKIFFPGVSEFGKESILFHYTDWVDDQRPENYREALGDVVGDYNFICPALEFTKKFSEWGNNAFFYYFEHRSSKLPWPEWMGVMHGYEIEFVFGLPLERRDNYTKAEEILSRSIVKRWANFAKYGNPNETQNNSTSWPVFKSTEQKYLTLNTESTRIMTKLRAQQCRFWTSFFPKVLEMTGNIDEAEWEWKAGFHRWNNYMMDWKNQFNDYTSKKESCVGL", "assay": "Pseudo-irreversible inhibition of human serum BChE assessed as enzyme recovery activity at 0.1 times IC50 using diluted compound relative to control", "assay_type": "cell-free", "design": "scale not given: the % may be the effect or the level left"}, "Cholinesterase [2]": {"target": "T2, Cholinesterase", "assay": "Pseudo-irreversible inhibition of human serum BChE assessed as enzyme recovery activity at IC50 using undiluted compound relative to control", "assay_type": "cell-free", "design": "scale not given: the % may be the effect or the level left"}, "[3]": {"target": "Amyloid-beta precursor protein (Homo sapiens) (UniProt P05067)", "sequence (P05067 whole entry)": "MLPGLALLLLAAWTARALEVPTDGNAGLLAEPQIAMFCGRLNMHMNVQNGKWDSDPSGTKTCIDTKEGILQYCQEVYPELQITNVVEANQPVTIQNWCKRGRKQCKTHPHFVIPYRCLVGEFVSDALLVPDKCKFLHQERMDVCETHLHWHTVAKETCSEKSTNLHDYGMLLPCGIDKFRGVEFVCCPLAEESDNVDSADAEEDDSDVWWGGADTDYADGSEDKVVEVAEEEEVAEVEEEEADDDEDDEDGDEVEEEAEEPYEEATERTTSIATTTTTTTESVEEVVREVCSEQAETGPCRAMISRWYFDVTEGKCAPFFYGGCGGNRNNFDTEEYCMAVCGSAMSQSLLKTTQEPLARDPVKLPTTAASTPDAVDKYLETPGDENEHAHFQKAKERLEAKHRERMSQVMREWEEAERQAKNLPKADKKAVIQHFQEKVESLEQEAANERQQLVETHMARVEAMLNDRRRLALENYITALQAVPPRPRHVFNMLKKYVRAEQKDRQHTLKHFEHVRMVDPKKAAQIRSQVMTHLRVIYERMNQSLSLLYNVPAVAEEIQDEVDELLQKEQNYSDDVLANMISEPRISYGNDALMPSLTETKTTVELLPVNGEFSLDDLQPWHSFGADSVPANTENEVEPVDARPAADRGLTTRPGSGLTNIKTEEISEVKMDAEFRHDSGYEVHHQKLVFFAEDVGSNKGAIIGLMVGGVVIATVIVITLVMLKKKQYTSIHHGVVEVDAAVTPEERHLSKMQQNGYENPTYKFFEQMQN", "assay": "Disaggregation of self-induced amyloid beta (1 to 42) (unknown origin) preformed fibrils at 25 uM by ThT fluorescence assay relative to control"}, "PC-12": {"tested_on": "PC-12", "assay": "Cytotoxicity against rat PC-12 cells assessed as reduction in cell viability <= 100 uM measured after 48 hrs by MTT assay", "assay_type": "cell-based", "conditions": "pc-12, 48 h"}, "[4]": {"assay": "Metal chelating activity assessed as Al3+-compound complex formation by measuring absorption wavelength at 37.5 uM in presence of 37.5 uM AlCl3 by UV-Vis spectrophotometric analysis"}, "[5]": {"assay": "Metal chelating activity assessed as Zn2+-compound complex formation at 37.5 uM in presence of 37.5 uM ZnCl2 by UV-Vis spectrophotometric analysis"}, "L02": {"tested_on": "L02", "assay": "Hepatoprotective activity H2O2-induced cell injury in human L02 cells assessed as cell viability at 10 uM measured after 48 hrs by MTT assay (reference value: 56.89 %)", "assay_type": "functional", "conditions": "read-out: Activity"}, "[6]": {"assay": "Acute toxicity in 2 dpf zebrafish assessed as maximum non-lethal concentration measured after 3 days", "design": "species or system Danio rerio", "conditions": "in vivo, time 3 day"}, "[7]": {"assay": "Acute toxicity in 2 dpf zebrafish assessed as precipitation at 20 ug/ml measured after 3 days", "design": "species or system Danio rerio", "conditions": "in vivo, 72 h, dose 20 µg/ml, time 3 day"}, "[8]": {"assay": "Toxicity in 2 dpf zebrafish at 1.39 ug/ml measured after 3 days", "design": "species or system Danio rerio", "conditions": "in vivo, 72 h, dose 1.39 µg/ml, time 3 day"}, "[9]": {"assay": "Acute toxicity in 2 dpf zebrafish assessed as yolk sac absorption delay at 4.17 ug/ml measured after 3 days relative to control", "design": "species or system Danio rerio", "conditions": "in vivo, 72 h, at 4.17 µg/mL, time 3 day"}, "[10]": {"assay": "Acute toxicity in 2 dpf zebrafish assessed as yolk sac absorption delay at 12.5 ug/ml measured after 3 days relative to control", "design": "species or system Danio rerio", "conditions": "in vivo, 72 h, at 12.5 µg/mL, time 3 day"}, "[11]": {"assay": "Acute toxicity in 2 dpf zebrafish assessed as yolk sac absorption delay at 1.39 ug/ml measured after 3 days", "design": "species or system Danio rerio", "conditions": "in vivo, 72 h, dose 1.39 µg/ml, time 3 day"}, "[12]": {"assay": "Acute toxicity in 2 dpf zebrafish assessed as bradycardia at 1.39 to 12.5 ug/ml measured after 3 days", "design": "species or system Danio rerio", "conditions": "in vivo, 72 h, dose 1.39-12.5 µg/ml, time 3 day"}, "[13]": {"assay": "Acute toxicity in 2 dpf zebrafish assessed as abnormal trunk at 1.39 to 12.5 ug/ml measured after 3 days", "design": "species or system Danio rerio", "conditions": "in vivo, 72 h, dose 1.39-12.5 µg/ml, time 3 day"}, "[14]": {"assay": "Acute toxicity in 2 dpf zebrafish assessed as abnormal pigmentation at 1.39 to 12.5 ug/ml measured after 3 days", "design": "species or system Danio rerio", "conditions": "in vivo, 72 h, dose 1.39-12.5 µg/ml, time 3 day"}, "[15]": {"assay": "Toxicity in 3 dpf zebrafish model of AlCl3-induced AD assessed as minimum toxic concentration", "design": "species or system Danio rerio", "conditions": "in vivo"}, "Danio rerio [16]": {"species_on_record": "Danio rerio", "assay": "Antialzheimer activity against 3 dpf zebrafish model of AlCl3-induced AD assessed as efficacy on motility distance at 1.4 ug/ml relative to control", "assay_type": "functional", "conditions": "dose 1.4 µg/ml"}, "Danio rerio [17]": {"species_on_record": "Danio rerio", "assay": "Antialzheimer activity against 3 dpf zebrafish model of AlCl3-induced AD assessed as motility by measuring change in speed at 4.2 ug/ml (reference value: 1.05 mm/s)", "assay_type": "functional", "conditions": "dose 4.2 µg/ml"}, "Danio rerio [18]": {"species_on_record": "Danio rerio", "assay": "Antialzheimer activity against 3 dpf zebrafish model of AlCl3-induced AD assessed as motility by measuring efficacy on speed change at 12.5 ug/ml relative to control", "assay_type": "functional", "conditions": "dose 12.5 µg/ml"}, "Danio rerio [19]": {"species_on_record": "Danio rerio", "assay": "Protection against amyloid beta (1 to 40 residues)-induced vascular injury in transgenic zebrafish assessed as efficacy on motility at 1.4 ug/ml relative to control", "assay_type": "functional", "conditions": "dose 1.4 µg/ml"}, "[20]": {"assay": "Acute toxicity in Kunming mouse assessed as hypokinesia at 2000 mg/kg", "assay_type": "organism-based", "conditions": "in vivo"}, "Mus musculus": {"tested_on": "Mus musculus", "assay": "Reversal of scopolamine-induced Kunming mouse model of memory impairment assessed as spontaneous alteration at 20 mg/kg by Y-maze test (reference value: 41.6 %)", "assay_type": "functional"}}, "note": "The source made the active and inactive calls. The rule behind the calls is not given here.", "data": [{"smiles": "CCN(C)C(=O)Oc1ccc(-c2cc(=O)c3c(O)cc(OC(=O)N(C)CC)cc3o2)cc1", "values": [{"measurement": "IC50", "setting": "Acetylcholinesterase", "result": 4.7, "unit": "µM"}, {"measurement": "Activity", "setting": "Cholinesterase [1]", "result": 44.8, "unit": "%"}, {"measurement": "Activity", "setting": "Cholinesterase [2]", "result": 50.6, "unit": "%"}, {"measurement": "Activity", "setting": "[3]", "result": 66.2, "unit": "%"}, {"measurement": "Activity", "setting": "PC-12", "result": "Non-Toxic"}, {"measurement": "Activity", "setting": "[4]", "result": 384, "unit": "nm"}, {"measurement": "Activity", "setting": "[5]", "result": "inactive"}, {"measurement": "viability at 10 µM", "setting": "L02", "result": 75.6, "unit": "%"}, {"measurement": "MNTC at 72 h", "setting": "[6]", "result": 12.5, "unit": "µg/mL"}, {"measurement": "Activity", "setting": "[7]", "result": "Toxic"}, {"measurement": "Activity", "setting": "[8]", "result": "Non-Toxic"}, {"measurement": "Activity", "setting": "[9]", "result": 33.3, "unit": "%"}, {"measurement": "Activity", "setting": "[10]", "result": 93.3, "unit": "%"}, {"measurement": "Activity", "setting": "[11]", "result": "Non-Toxic"}, {"measurement": "Activity", "setting": "[12]", "result": "Non-Toxic"}, {"measurement": "Activity", "setting": "[13]", "result": "Non-Toxic"}, {"measurement": "Activity", "setting": "[14]", "result": "Non-Toxic"}, {"measurement": "MTC", "setting": "[15]", "result": 12.5, "unit": "µg/mL"}, {"measurement": "Efficacy", "setting": "Danio rerio [16]", "result": 59, "unit": "%"}, {"measurement": "Activity", "setting": "Danio rerio [17]", "result": 1.98, "unit": "millimeter/sec"}, {"measurement": "Efficacy", "setting": "Danio rerio [18]", "result": 87, "unit": "%"}, {"measurement": "Efficacy", "setting": "Danio rerio [19]", "result": 18, "unit": "%"}, {"measurement": "Activity", "setting": "[20]", "result": "Toxic"}, {"measurement": "Activity", "setting": "Mus musculus", "result": 57.1, "unit": "%"}]}]}
